The source of these data is patent publication US20250011281A1, “THERAPEUTIC ALKALOID COMPOUNDS” (Sensorium Therapeutics, Inc., priority 2023, published 2025).

Molecules are shown by their SMILES. Where two headings read alike, the source gives them in different places. Where only a bound is given, the exact number is not on record here.

In one series the target is T1, SERT (Homo sapiens, UniProt P31645).
T1 construct: expressed in transfected cells
The experiment in a line: SERT Inhibition Assay (Neurotransmitter Transportation Fluorescence assay). The format is cell-based. The conditions noted are these: for IC50 Ratio to (−) Mesembrine: SERT assay, ratio to compound 0001. The method, then:
Example A: SERT Inhibition Assay
SERT inhibition was measured using a Neurotransmitter Transportation Fluorescence assay. Briefly, stable 5HHH cells were prepared in a 384 microwell plate. Compounds were prepared by in assay buffer (20 mM HEPES, 0.1% BSA). The compounds were added to the plated cells and incubated for 30 minutes at 37° C. 25 μL of dye solution (Molecular Devices Neurotransmitter Transporter Uptake Assay Kit) was added per well and incubated for 30 minutes at 37° C. The plates were then read on a plate reader.

The target of the next series is 5-HTT (Homo sapiens, UniProt P31645). Nature of the series: Potency at 5-HTT compared to mesembrine.
Series [1] in a line: Metabolic stability compared to mesembrine. The format is in vitro ADME.
For the next series, the target named is 5-HT transporter (SERT) (Homo sapiens, UniProt P31645). Conditions: concentration response curves; cited from earlier work.
The mark [2] stands for this setting: stable 5HHH cells, 30 minutes at 37° C., read-out: SERT Assay Potency Range.

T1 sequence (P31645 whole entry, species assumed): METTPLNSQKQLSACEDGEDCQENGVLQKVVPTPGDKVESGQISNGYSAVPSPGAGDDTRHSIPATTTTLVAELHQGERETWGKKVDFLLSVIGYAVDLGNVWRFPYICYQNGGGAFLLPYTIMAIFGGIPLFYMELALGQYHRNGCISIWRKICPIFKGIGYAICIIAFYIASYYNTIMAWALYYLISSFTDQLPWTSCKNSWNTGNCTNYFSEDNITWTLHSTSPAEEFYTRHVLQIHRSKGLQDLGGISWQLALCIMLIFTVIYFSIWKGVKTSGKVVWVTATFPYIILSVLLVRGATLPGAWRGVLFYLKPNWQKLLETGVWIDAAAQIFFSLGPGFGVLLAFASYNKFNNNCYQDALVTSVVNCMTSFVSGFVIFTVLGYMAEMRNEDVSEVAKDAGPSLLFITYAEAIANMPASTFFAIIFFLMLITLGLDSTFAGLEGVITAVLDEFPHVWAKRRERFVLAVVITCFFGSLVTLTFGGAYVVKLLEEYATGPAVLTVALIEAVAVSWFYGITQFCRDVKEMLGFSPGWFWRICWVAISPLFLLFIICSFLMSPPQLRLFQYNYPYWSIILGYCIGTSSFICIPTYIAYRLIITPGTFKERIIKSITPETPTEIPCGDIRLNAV
Chain of 5-HTT (P31645 whole entry, species assumed): as above
Chain of 5-HT transporter (SERT) (P31645 whole entry, species assumed): as above

On to `COc1ccc([C@@]23CCN(C)[C@@H]2C[C@H](O)[C@@H]2O[C@@H]23)cc1OC` (single isomer, unassigned) [Compound 1932], for which the “IC50 Ratio to (−) Mesembrine” value at SERT is at least 10. In addition, on SERT (setting [2]), the IC50 is 100 to 500 nM. Take `COc1ccc([C@@]23CC[C@H](O)C[C@@H]2N(C)CC3)cc1OC` [6-epi-mesembranol]: at 5-HTT, the “potency at 5-HTT” value was “decrease in potency”. In series [1], the metabolic stability entry is recorded as “enhanced metabolic stability”. On to `COc1ccc([C@@]23CC[C@@H](O)C[C@@H]2N(C)CC3)cc1OC` [Compound 0018, (3aS,6R,7aS)-3a-(3,4-dimethoxyphenyl)-1-methyloctahydro-1H-indol-6-ol], for which the “IC50 Ratio to (−) Mesembrine” value at SERT is at least 1.0. In addition, the IC50 on SERT (setting [2]) was under 50 nM. For `COc1ccc([C@@]23CC[C@H](O)C[C@@H]2N(C)CC3)cc1OC` [Compound 0019, (3aS,6S,7aS)-3a-(3,4-dimethoxyphenyl)-1-methyloctahydro-1H-indol-6-ol], in that order: at least 1.0 and under 50 nM.

Regarding `COc1ccc([C@@]23C=C[C@@H](O)C[C@@H]2N(C)CC3)cc1OC` [Compound 0020], on SERT, the “IC50 Ratio to (−) Mesembrine” value is recorded as at least 100. Moreover, on SERT (setting [2]), the IC50 lay within 100 to 500 nM. For `COc1ccc([C@@]23C=C[C@H](O)C[C@@H]2N(C)CC3)cc1OC` [Compound 0021], in that order: at least 10 and 100 to 500 nM. For `COc1ccc([C@]23C=C[C@H](O)C[C@H]2N(C)CC3)cc1OC` [Compound 0023], in that order: at least 10 and 100 to 500 nM. For `COc1ccc([C@]23C=C[C@@H](O)C[C@H]2N(C)CC3)cc1OC` [Compound 0024], in that order: at least 100 and 100 to 500 nM.

As for `CCCOc1cc([C@@]23CC[C@@H](O)C[C@@H]2N(C)CC3)ccc1OC` [Compound 0707], the “IC50 Ratio to (−) Mesembrine” value on SERT is on record as at least 10. For the same compound, the IC50 at SERT (setting [2]) lay in the range of 50 to 100 nM. `CCCOc1cc([C@@]23CC[C@H](O)C[C@@H]2N(C)CC3)ccc1OC` [Compound 0708]: the “IC50 Ratio to (−) Mesembrine” value on SERT is recorded as at least 1.0. Besides, on SERT (setting [2]), the IC50 was under 50 nM.

As to `CCN1CC[C@]2(c3ccc(OC)c(OC)c3)CC[C@@H](O)C[C@H]12` [Compound 1001], on SERT, the “IC50 Ratio to (−) Mesembrine” value is at least 100. Moreover, at SERT (setting [2]), the IC50 was over 1000 nM. For `CCN1CC[C@]2(c3ccc(OC)c(OC)c3)CC[C@H](O)C[C@H]12` [Compound 1002], in that order: at least 100 and 500 to 1000 nM. For `CCOc1ccc([C@@]23CC[C@@H](O)C[C@@H]2N(C)CC3)cc1OCC` [Compound 1763], in that order: at least 1.0 and under 50 nM. For `CCOc1ccc([C@@]23CC[C@H](O)C[C@@H]2N(C)CC3)cc1OCC` [Compound 1764], in that order: at most 0.5 and under 50 nM. With `COc1ccc([C@]23CCN(C)[C@H]2C[C@@H](O)[C@@H]2O[C@@H]23)cc1OC` [Compound 1930], the “IC50 Ratio to (−) Mesembrine” value on SERT is listed as at least 10. Also, the IC50 at SERT (setting [2]) was in the range of 100 to 500 nM. Take `COc1ccc([C@]23CCN(C)[C@H]2[C@H]2CC[C@@H]3C[C@H]2O)cc1OC` [Compound 1933]: the “IC50 Ratio to (−) Mesembrine” value on SERT was at least 1.0. The IC50 on SERT (setting [2]) is under 50 nM.

Take `COc1cc([C@@]23CC[C@H](O)C[C@@H]2N(C)CC3)ccc1O` [Compound 2700]: at SERT, the “IC50 Ratio to (−) Mesembrine” value is at least 1.0. Also, the IC50 on SERT (setting [2]) was under 50 nM.

Turning to `COc1cc([C@@]23CC[C@@H](O)C[C@@H]2N(C)CC3)ccc1OC(F)F` [Compound 2723], on SERT, the IC50 was under 50 nM and the “IC50 Ratio to (−) Mesembrine” value is recorded as at most 0.5. As for `COc1cc([C@@]23CC[C@H](O)C[C@@H]2N(C)CC3)ccc1OC(F)F` [Compound 2724], the “IC50 Ratio to (−) Mesembrine” value on SERT is at most 0.5. For the same compound, on SERT (setting [2]), the IC50 was under 50 nM. For the compound `COc1ccc([C@@]23C=C[C@@H](O)C[C@@H]2N(C)CC3)cc1OC` [Mesembrenol, mesembrenol], at 5-HT transporter (SERT), the nH is 1.1. On to `COc1ccc([C@@]23CC[C@@H](O)C[C@@H]2N(C)CC3)cc1OC` [mesembranol, Mesembranol], for which the “potency at 5-HTT” value on 5-HTT is “decrease in potency”. Also, the metabolic stability entry in series [1] is “enhanced metabolic stability”.
